Reference: publication PMC3433414, “Oral Administration of the Pimelic Diphenylamide HDAC Inhibitor HDACi 4b Is Unsuitable for Chronic Inhibition of HDAC Activity in the CNS In Vivo” (PLoS ONE, 2012)

Legend:
Na+ channel (site 2) = test: Cerep binding, antagonist radioligand; conditions: 10 μM
Excerpt: (§1) In addition to the HDAC profiling performed, we also queried 4b for any apparent potential off-target effects, which could complicate any finding of efficacy or adverse events in vivo due to ‘polypharmacy’. This was accomplished by screening against a ‘diversity panel’ of 72 binding and 29 enzyme assays, comprised of roughly equal numbers of selective central and peripheral therapeutically relevant targets (Cerep Diversity Profile). This panel included representative targets from diverse enzyme families, G protein coupled receptors, steroid nuclear receptors, voltage- and ligand-gated ion channels. While not totally inclusive, it is a useful tool for discovery compounds to assess their viability as proof of concept molecules to specifically query a particular target. 4b was initially screened at 10 µM in duplicate. The full set of results is provided as Table S1. […] This clean in vitro profile was considered acceptable to proceed to ADME and pharmacokinetic studies.

PCP = test: Cerep binding, antagonist radioligand; conditions: 10 μM
Excerpt: as §1

NMDA = test: Cerep binding, antagonist radioligand; conditions: 10 μM
Excerpt: as §1

HDAC3-NcoR2 = target: T1, HDAC3-NcoR2 (Homo sapiens, UniProt O15379); test: Two-step fluorogenic deacetylase assay, recombinant HDAC3; format: biochemical
T1 construct: purified recombinant human full length HDAC1 (cat# 50051), HDAC2 (cat# 50052), HDAC3-NcoR2 (cat# 50003); purchased BPS Bioscience (San Diego, CA) 50003
T1 sequence (O15379 whole entry): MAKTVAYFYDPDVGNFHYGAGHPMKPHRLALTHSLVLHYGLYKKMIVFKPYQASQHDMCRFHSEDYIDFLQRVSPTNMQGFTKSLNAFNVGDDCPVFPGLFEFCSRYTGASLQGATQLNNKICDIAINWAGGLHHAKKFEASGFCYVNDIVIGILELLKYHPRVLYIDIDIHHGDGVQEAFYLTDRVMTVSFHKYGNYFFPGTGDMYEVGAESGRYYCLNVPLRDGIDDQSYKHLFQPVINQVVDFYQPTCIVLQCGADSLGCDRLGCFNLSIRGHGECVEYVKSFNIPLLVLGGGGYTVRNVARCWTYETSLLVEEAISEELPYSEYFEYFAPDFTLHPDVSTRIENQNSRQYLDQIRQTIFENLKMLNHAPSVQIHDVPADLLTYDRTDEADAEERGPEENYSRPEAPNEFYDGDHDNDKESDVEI
T1 sequence (Q9Y618 395-489 partner limits assumed): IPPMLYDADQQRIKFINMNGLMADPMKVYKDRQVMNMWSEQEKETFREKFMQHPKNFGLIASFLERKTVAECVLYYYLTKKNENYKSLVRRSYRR
Experimental: As described, the length of compound-enzyme incubation has been reported to be critical for this class of HDAC inhibitors, where a unique time-dependent increase in affinity and subsequent potency has been observed [36]–[38]. […] To better mimic physiological conditions, our experiments were performed at 37°C as opposed to room temperature as reported in previous studies. […] To confirm that this shift was independent of the time of 4b in aqueous solution, 4b was applied immediately to the enzyme-substrate mix both after preparing in aqueous buffer, and 120 min after preparation.
To assess the biochemical and cellular potency of 4b and its conversion products/metabolites, we utilized the two-step fluorogenic assay which measures the HDAC-mediated catalytic conversion of synthetic acetylated lysine substrates. In brief, on deacetylation of the substrates by HDAC activity, a protease site is unmasked which allows subsequent trypsin-mediated cleavage and release of the highly flourescent AMC molecules in a subsequent step of the assay. The substrates used were Lys_Ac_AMC (Bachem I-1875) for HDAC3 and (Ac)Arg-Gly-Lys(Ac) (Bachem I-1925) for HDAC1 and HDAC2. The final substrates used for each enzyme assessment were carefully selected after assessing the catalytic turnover of each of these substrates against HDAC1, HDAC2 and HDAC3 respectively, and selecting the ones that performed best. To assess Class IIa enzyme activity (HDAC4, 5, 7, 9) and Class I HDAC8 activity, we used the alternative substrate Boc_Lys_TFA (Bachem I-1985), equivalent to substrate 4 of [42]. Class IIa HDACs have approximately 1000-fold less catalytic activity than Class 1 enzymes, and show only extremely low turnover of acetylated substrates due to a Tyr to His mutation in the active site. However, the relatively labile and sterically more demanding trifluoracetyl group is readily hydrolyzed by the catalytically less avid Class IIa enzymes, allowing measurement of Class IIa activity using the 2-step fluorogenic assay. Intriguingly the Boc_Lys_TFA substrate seems to show almost total selectivity for Class IIa enzymes over class I and Class IIb enzymes, with the exception of HDAC8 ([42], and internal data).
For evaluation of the class selectivity of the compounds, we assessed inhibition against purified recombinant human full length HDAC1 (cat# 50051), HDAC2 (cat# 50052), HDAC3-NcoR2 (cat# 50003) and HDAC8 (cat# 50008): as representative of Class I activity; catalytic domain HDAC4(αα 648–1057), HDAC5 (αα 657–1123; cat # 50005), HDAC7 (αα 518-end; cat # 50007) and HDAC9 (αα 604–1066; cat # 50009) activity: representing all Class IIa activity; and full length HDAC6 (cat#50006): representing Class IIb activity. With the exception of purified catalytic domain HDAC4, which was prepared for us by Emerald Biosciences (Seattle, WA), all HDAC enzymes were purchased from BPS Bioscience (San Diego, CA).
Unless otherwise stated in the text, assays were run in the following format in 384-well plates using automated liquid handling procedures. Briefly, frozen enzyme stock and compounds were diluted in assay buffer (50 mM Tris-HCl, 137 mM NaCl, 2.7 mM KCl, 1 mM MgCl2 at pH 8.0) and added to plates at concentrations sufficient to achieve a 16-point concentration-response curve from 50 µM to 1 nM at 1% DMSO final concentration, after addition of all reagents. Substrate diluted in assay buffer was then added and plates were incubated after brief shaking for 60 min at 37°C. Following incubation, a developer/stop-step was introduced to terminate the reaction and cleave the fluorescent substrate: either the addition of trypsin with 10 µM Compound 26 [44] for the Class IIa enzymes, or trypsin with 5 µM Trichostatin A (TSA) for the Class I/IIb enzymes. Plates were briefly shaken and then returned to the incubator for a further 60 min, followed by measurement of fluorescence per well (Ex 355 nm, Em 460 nm) on a Perkin Elmer EnVision. […]

D1 (h) = target: T2, D1 (h) (Homo sapiens, UniProt P21728); test: Cerep binding, antagonist radioligand; conditions: read-out: % inhibition of control specific binding
T2 construct: purchased Cerep (Diversity Profile)
T2 sequence (P21728 whole entry): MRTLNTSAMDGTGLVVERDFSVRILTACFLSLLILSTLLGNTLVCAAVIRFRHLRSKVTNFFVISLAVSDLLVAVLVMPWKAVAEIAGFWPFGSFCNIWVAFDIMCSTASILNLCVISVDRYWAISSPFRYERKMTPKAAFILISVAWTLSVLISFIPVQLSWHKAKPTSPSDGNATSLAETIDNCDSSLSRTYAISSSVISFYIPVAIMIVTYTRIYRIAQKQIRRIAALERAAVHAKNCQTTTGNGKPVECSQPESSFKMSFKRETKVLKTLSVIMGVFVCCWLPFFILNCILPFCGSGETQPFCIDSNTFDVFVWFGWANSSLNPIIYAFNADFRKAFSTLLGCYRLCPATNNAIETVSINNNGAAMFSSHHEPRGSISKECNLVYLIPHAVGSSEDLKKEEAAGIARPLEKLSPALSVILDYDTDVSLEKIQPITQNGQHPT
Excerpt: as §1

opioid (non‐selective) = test: Cerep binding, antagonist radioligand; conditions: 10 μM
Excerpt: as §1

KATP channel = test: Cerep binding, antagonist radioligand; conditions: 10 μM
Excerpt: as §1

Row | SMILES | % inhibition of control specific binding (Na+ channel (site 2)) [%] | % inhibition of control specific binding (PCP) [%] | % inhibition of control specific binding (NMDA) [%] | selectivity for HDAC3 over HDAC2 (HDAC3-NcoR2) [fold] | IC50 (HDAC3-NcoR2; 0 min pre-incubation with enzyme, then 60 min substrate, 37°C) [nM] | IC50 (HDAC3-NcoR2; 2 h pre-incubation with enzyme (3 h incubation in total), 37°C) [nM] | IC50 (HDAC3-NcoR2; no enzyme pre-incubation, applied 120 min after preparation in aqueous buffer) [nM] | IC50 (HDAC3-NcoR2; no enzyme pre-incubation, applied immediately after preparing in aqueous buffer) [nM] | selectivity within the Class I enzymes for HDAC3 (HDAC3-NcoR2; standard screening format) [fold] | IC50 (HDAC3-NcoR2; standard screening format, free base, DMSO stock) [nM] | inhibition at 10 µM (D1 (h)) [%] | % inhibition of control specific binding (opioid (non‐selective)) [%] | % inhibition of control specific binding (KATP channel) [%]
1 | Nc1ccccc1NC(=O)CCCCCC(=O)Nc1ccccc1 [Compound 4b] | 7 | 15 | 1 | ~9 | 650 | 80 | 650 | 970 | ~6 | 254 |  |  | 
2 | O=C(CCCCCc1nc2ccccc2[nH]1)Nc1ccccc1 [Compound C1, 6-(1-H-benzo[d]imidazol-2-yl)-N-phenylhexanamide] |  |  |  |  |  |  |  |  |  |  | 27 | 40 | 5
